Measured values taken from patent publication US20250387363A1, “LIQUID EPINEPHRINE PRODRUG FORMULATIONS AND LIQUID EPINEPHRINE FORMULATIONS” (Insignis Therapeutics, Inc., priority 2024, published 2025).

Experiments:
[1] = Cross study epinephrine PK comparison, L-dipivefrin HCl formulations vs EpiPen 0.3 mg; assay type: in vivo, human; details: oral formulations administered sublingually; Table 10.1
Description: FIG. 5. […] Study period I and study period II refer to the two test periods described in example 7 which are separated by a 1 week washout period.

[2] = test system: healthy adult human volunteers; assay: Cross study pharmacodynamic response comparison (SBP, DBP, PR change from baseline) vs EpiPen 0.3 mg; assay type: in vivo; details: sublingual liquid dosage form, 10 mg dipivefrin HCl, two hours postdose
[3] = rabbits; cited from earlier work

CNC[C@H](O)c1ccc(OC(=O)C(C)(C)C)c(OC(=O)C(C)(C)C)c1.Cl [L-dipivefrin HCl, L-dipivefrin hydrochloride]
Epinephrine exposures compared to Epipen 0.3 mg [1]: comparable
Median SBP (Systolic Blood Pressure) change from baseline response compared to EpiPen 0.3 mg injection ([2]; FIG. 6): greater
Median DBP (Diastolic Blood Pressure) change from baseline response compared to EpiPen 0.3 mg injection ([2]; FIG. 7): greater
Median PR (Pulse Rate) change from baseline response compared to EpiPen 0.3 mg injection ([2]; FIG. 8): comparable or greater
PD response (SBP, DBP and PR change from baseline) compared to EpiPen 0.3 mg injection ([2]; FIGS. 6-8): comparable or greater

CNC[C@H](O)c1ccc(O)c(O)c1 [epinephrine, 4-[(1R)-1-hydroxy-2-(methylamino)ethyl]benzene-1,2-diol]
Sublingual dose giving systemic absorption equivalent to IM epinephrine [3]: 40 mg
